≈ marks a conversion by molar mass, not a printed value. Calls of active or inactive are those of the source. The calls are words filed in the database; no cut-off is given here.
Columns and labels:
[1] = system: Plasmodium berghei; experiment: Antimalarial activity against Plasmodium berghei ANKA expressing GFP infected in Sprague-Dawley rat assessed as total cure from parasite at 30 mg/kg, po administered as single dose measured on day 30 post-infection by flow cytometry; type: functional, organism-based; design: dose 30 mg/kg
[2] = system: Plasmodium berghei; experiment: Antimalarial activity against Plasmodium berghei ANKA expressing GFP infected in Sprague-Dawley rat assessed as reduction in parasitemia at 10 mg/kg, po administered as single dose measured on day 3 post-infection by flow cytometry; type: functional; design: scale not given: the % may be the effect or the level left
[3] = system: Plasmodium berghei; experiment: Antimalarial activity against Plasmodium berghei ANKA expressing GFP infected in Sprague-Dawley rat assessed as mean survival days of host at 10 mg/kg, po administered as single dose; type: functional
[4] = system: Plasmodium berghei; experiment: Antimalarial activity against Plasmodium berghei ANKA expressing GFP infected in Sprague-Dawley rat assessed as reduction in parasitemia at 3 mg/kg, po administered as single dose measured on day 3 post-infection by flow cytometry; type: functional; design: scale not given: the % may be the effect or the level left
[5] = system: Plasmodium berghei; experiment: Antimalarial activity against Plasmodium berghei ANKA expressing GFP infected in Sprague-Dawley rat assessed as mean survival days of host at 3 mg/kg, po administered as single dose; type: functional
[6] = Apparent terminal half life in Sprague-Dawley rat at 3.2 mg/kg, iv; type: ADME, organism-based; design: dose 3.2 mg/kg, route intravenous; conditions: in vivo, read-out: betat1/2(app) (converted)
[7] = Apparent terminal half life in Sprague-Dawley rat at 20.2 mg/kg, po; type: ADME, organism-based; design: dose 20.2 mg/kg, route oral; conditions: in vivo, read-out: betat1/2(app) (converted)
[8] = Total plasma clearance in Sprague-Dawley rat at 3.2 mg/kg, iv; type: ADME, organism-based; design: dose 3.2 mg/kg, route intravenous
[9] = Volume of distribution at steady state in Sprague-Dawley rat at 3.2 mg/kg, iv; type: ADME, organism-based; design: dose 3.2 mg/kg, route intravenous; conditions: plasma, read-out: Vdss
[10] = Cmax in Sprague-Dawley rat at 20.2 mg/kg, po; type: ADME, organism-based; design: dose 20.2 mg/kg, route oral; conditions: in vivo
[11] = Tmax in Sprague-Dawley rat at 20.2 mg/kg, po; type: ADME, organism-based; design: dose 20.2 mg/kg, route oral; conditions: in vivo
[12] = AUC (0 to infinity) in Sprague-Dawley rat at 3.2 mg/kg, iv; type: ADME, organism-based; design: time infinity, dose 3.2 mg/kg, route intravenous; conditions: plasma
[13] = AUC (0 to infinity) in Sprague-Dawley rat at 20.2 mg/kg, po; type: ADME, organism-based; design: time infinity, dose 20.2 mg/kg, route oral; conditions: plasma
[14] = Oral bioavailability in Sprague-Dawley rat at 20.2 mg/kg; type: ADME, organism-based; conditions: in vivo
[15] = system: Plasmodium berghei; experiment: Antimalarial activity against Plasmodium berghei ANKA expressing GFP infected in po dosed Sprague-Dawley rat assessed as reduction in parasitemia administered as single dose measured on day 3 post-infection by flow cytometry; type: functional; conditions: 72 h
[16] = target: T1, Cytochrome P450 1A2 (Homo sapiens, UniProt P05177); experiment: Inhibition of CYP1A2-mediated phenacetin O-deethylation in human liver microsomes; type: ADME, Microsome
T1 sequence (P05177 whole entry): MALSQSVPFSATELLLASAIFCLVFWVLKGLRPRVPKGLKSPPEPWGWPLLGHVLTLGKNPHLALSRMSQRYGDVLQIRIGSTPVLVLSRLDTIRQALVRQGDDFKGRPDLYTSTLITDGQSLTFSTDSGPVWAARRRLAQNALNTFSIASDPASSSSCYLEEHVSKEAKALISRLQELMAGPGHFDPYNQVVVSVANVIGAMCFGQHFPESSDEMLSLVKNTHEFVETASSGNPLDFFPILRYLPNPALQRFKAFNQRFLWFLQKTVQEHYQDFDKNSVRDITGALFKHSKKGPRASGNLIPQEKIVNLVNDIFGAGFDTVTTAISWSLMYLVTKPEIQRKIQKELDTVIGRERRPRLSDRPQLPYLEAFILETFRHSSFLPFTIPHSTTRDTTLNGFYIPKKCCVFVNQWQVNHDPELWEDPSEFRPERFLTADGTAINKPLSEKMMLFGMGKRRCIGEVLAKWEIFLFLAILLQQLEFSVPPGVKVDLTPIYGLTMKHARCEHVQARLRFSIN

[17] = target: Cytochrome P450 2C9 (Homo sapiens, UniProt P11712); experiment: Inhibition of CYP2C9-mediated tolbutamide methylhydroxylation in human liver microsomes; type: ADME, Microsome
Cytochrome P450 2C9, sequence (P11712 whole entry): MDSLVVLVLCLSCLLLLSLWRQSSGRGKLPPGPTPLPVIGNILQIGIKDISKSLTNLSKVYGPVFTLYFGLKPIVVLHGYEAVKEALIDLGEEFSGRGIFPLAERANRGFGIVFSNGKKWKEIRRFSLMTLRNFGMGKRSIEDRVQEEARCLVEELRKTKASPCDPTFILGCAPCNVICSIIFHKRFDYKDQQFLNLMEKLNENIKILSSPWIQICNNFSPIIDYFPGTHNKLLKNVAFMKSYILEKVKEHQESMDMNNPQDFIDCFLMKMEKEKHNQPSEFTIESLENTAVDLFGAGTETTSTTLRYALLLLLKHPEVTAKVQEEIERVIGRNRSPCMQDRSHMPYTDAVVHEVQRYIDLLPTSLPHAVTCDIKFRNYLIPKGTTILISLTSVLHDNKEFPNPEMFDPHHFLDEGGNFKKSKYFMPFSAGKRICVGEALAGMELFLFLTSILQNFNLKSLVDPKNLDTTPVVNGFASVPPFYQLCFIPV

[18] = target: Cytochrome P450 2C19 (Homo sapiens, UniProt P33261); experiment: Inhibition of CYP2C19-mediated (S)-mephenytoin 4'-hydroxylation in human liver microsomes; type: ADME, Microsome
Cytochrome P450 2C19, sequence (P33261 whole entry): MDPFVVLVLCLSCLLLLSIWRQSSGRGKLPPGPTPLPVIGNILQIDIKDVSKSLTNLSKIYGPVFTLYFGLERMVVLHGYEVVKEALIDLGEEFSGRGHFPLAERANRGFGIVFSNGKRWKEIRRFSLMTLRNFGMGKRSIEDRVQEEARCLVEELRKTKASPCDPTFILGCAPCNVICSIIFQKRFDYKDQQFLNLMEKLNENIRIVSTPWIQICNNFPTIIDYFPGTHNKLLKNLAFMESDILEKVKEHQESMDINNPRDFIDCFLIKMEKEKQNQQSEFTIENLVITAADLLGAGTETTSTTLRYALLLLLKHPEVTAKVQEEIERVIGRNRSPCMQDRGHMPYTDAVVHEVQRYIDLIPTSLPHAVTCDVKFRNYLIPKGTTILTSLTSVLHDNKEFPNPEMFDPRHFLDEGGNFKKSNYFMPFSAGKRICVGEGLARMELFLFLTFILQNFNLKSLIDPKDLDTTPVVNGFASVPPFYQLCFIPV

[19] = target: Cytochrome P450 2D6 (Homo sapiens, UniProt P10635); experiment: Inhibition of CYP2D6-mediated dextromethorphan O-demethylation in human liver microsomes; type: ADME, Microsome
Cytochrome P450 2D6, sequence (P10635 whole entry): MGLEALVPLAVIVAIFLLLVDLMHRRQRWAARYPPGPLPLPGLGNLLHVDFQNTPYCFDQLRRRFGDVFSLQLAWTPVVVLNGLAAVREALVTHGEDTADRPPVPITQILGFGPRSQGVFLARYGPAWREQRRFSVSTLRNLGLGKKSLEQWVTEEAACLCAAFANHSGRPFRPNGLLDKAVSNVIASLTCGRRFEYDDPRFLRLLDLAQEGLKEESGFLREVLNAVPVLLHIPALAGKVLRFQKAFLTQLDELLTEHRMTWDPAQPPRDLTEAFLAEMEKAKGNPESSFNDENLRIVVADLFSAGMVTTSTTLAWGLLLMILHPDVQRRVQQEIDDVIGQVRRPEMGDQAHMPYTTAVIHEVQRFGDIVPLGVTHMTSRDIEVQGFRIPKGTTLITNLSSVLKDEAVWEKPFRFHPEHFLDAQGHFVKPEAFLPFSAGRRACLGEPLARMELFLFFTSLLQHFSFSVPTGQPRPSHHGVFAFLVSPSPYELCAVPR

[20] = target: Cytochrome P450 3A4/3A5 (Homo sapiens, UniProt P08684+P20815); experiment: Inhibition of CYP3A4/CYP3A5-mediated testosterone 6beta-hydroxylation in human liver microsomes; type: ADME, Microsome
[21] = system: L6; experiment: Cytotoxicity against rat L6 cells after 72 hrs by alamar blue assay; type: cell-based; conditions: l6, 72 h
[22] = system: Salmonella typhimurium; experiment: Genotoxicity in Salmonella typhimurium by Ames test; type: toxicity, organism-based; conditions: salmonella enterica subsp. enterica serovar typhimurium
[23] = Toxicity in rabbit ventricular wedge assessed as change in QT at 2 uM; type: tissue-based, Oryctolagus cuniculus, Cardiac ventricle
[24] = Toxicity in rabbit ventricular wedge assessed as change in TP-e at 2 uM; type: tissue-based, Oryctolagus cuniculus, Cardiac ventricle
[25] = Toxicity in rabbit ventricular wedge assessed as change in […] at 2 uM; type: tissue-based, Oryctolagus cuniculus, Cardiac ventricle
[26] = Solubility of the compound at 10 uM; type: physicochemical
[27] = system: Plasmodium berghei; experiment: Antimalarial activity against Plasmodium berghei ANKA expressing GFP infected in Sprague-Dawley rat assessed as reduction in parasitemia at 50 mg/kg, po administered as 4 doses measured on day 4 post-infection by flow cytometry; type: functional; design: scale not given: the % may be the effect or the level left
[28] = system: Plasmodium falciparum; experiment: Antimalarial activity against chloroquine-resistant Plasmodium falciparum K1 after 24 hrs by hypoxanthine incorporation assay; type: functional, organism-based; conditions: K1, 24 h
[29] = Partition coefficient, log D of the compound at pH 7.4 by phase gradient HPLC analysis; type: physicochemical; conditions: octanol/water
[30] = Kinetic solubility of the compound in phosphate buffer after 30 mins by nephelometry at pH 6.5; type: physicochemical; conditions: read-out: Kinetic_solubility
[31] = Plasma protein binding in human by reverse phase gradient HPLC analysis; type: ADME, cell-free; conditions: read-out: PPB (converted)
[32] = Half life in human liver microsomes at 1 uM; type: ADME, Microsome
[33] = Intrinsic clearance in human liver microsomes at 1 uM up to 60 mins; type: ADME, Microsome; conditions: read-out: CLH
[34] = system: Plasmodium berghei; experiment: Antimalarial activity against Plasmodium berghei ANKA expressing GFP infected in Sprague-Dawley rat assessed as mean survival days of host at 50 mg/kg, po administered as 4 doses; type: functional
[35] = system: Plasmodium berghei; experiment: Antimalarial activity against Plasmodium berghei ANKA expressing GFP infected in Sprague-Dawley rat assessed as total cure from parasite at 50 mg/kg, po administered as 4 doses measured on day 30 post-infection by flow cytometry; type: functional, organism-based; design: dose 50 mg/kg
[36] = system: Plasmodium berghei; experiment: Antimalarial activity against Plasmodium berghei ANKA expressing GFP infected in Sprague-Dawley rat assessed as reduction in parasitemia at 100 mg/kg, po administered as single dose measured on day 3 post-infection by flow cytometry; type: functional; design: scale not given: the % may be the effect or the level left
[37] = system: Plasmodium berghei; experiment: Antimalarial activity against Plasmodium berghei ANKA expressing GFP infected in Sprague-Dawley rat assessed as mean survival days of host at 100 mg/kg, po administered as single dose; type: functional
[38] = system: Plasmodium berghei; experiment: Antimalarial activity against Plasmodium berghei ANKA expressing GFP infected in Sprague-Dawley rat assessed as total cure from parasite at 100 mg/kg, po administered as single dose measured on day 30 post-infection by flow cytometry; type: functional, organism-based; design: dose 100 mg/kg
[39] = system: Plasmodium berghei; experiment: Antimalarial activity against Plasmodium berghei ANKA expressing GFP infected in Sprague-Dawley rat assessed as reduction in parasitemia at 30 mg/kg, po administered as single dose measured on day 3 post-infection by flow cytometry; type: functional; design: scale not given: the % may be the effect or the level left
[40] = system: Plasmodium berghei; experiment: Antimalarial activity against Plasmodium berghei ANKA expressing GFP infected in Sprague-Dawley rat assessed as mean survival days of host at 30 mg/kg, po administered as single dose; type: functional

Q: Which Activity [1] does the source give for CS(=O)(=O)c1ccc(-c2cnc(N)c(-c3ccc(C(F)(F)F)nc3)c2)cc1 [MMV-048] here?
A: Active

Q: What about the Activity [2] of the same compound?
A: 98%

Q: What about the MSD [3] of the same compound?
A: 13 days

Q: And the Activity [4]?
A: 98%

Q: And the MSD [5]?
A: 8 days

Q: And the half-life [6]?
A: 7.3 h

Q: And the half-life [7]?
A: 8.5 h

Q: What about the clearance [8] of the same compound?
A: 6.5 mL/min/kg

Q: And the Vd [9]?
A: 2.7 L/kg

Q: And the Cmax [10]?
A: 8 µM

Q: And the Tmax [11]?
A: 2.5 h

Q: And the AUC(0-inf) [12]?
A: 23.4 µM·h

Q: What about the AUC(0-inf) [13] of the same compound?
A: 74.2 µM·h

Q: And the bioavailability [14]?
A: 51%

Q: And the ED50 [15]?
A: 0.83 mg/kg

Q: And the ED90 [15]?
A: 1.7 mg/kg

Q: And the INH [16]?
A: > 20 µM

Q: And the INH [17]?
A: > 20 µM

Q: And the INH [18]?
A: > 20 µM

Q: What about the INH [19] of the same compound?
A: > 20 µM

Q: And the INH [20]?
A: > 20 µM

Q: What about the Activity [21] of the same compound?
A: 251.4 µM

Q: And the Activity [22]?
A: Non-toxic

Q: What about the Activity [23] of the same compound?
A: Non-toxic

Q: And the Activity [24]?
A: Non-toxic

Q: What about the Activity [25] of the same compound?
A: Non-toxic

Q: And the solubility [26]?
A: Insoluble

Q: What about the Activity [27] of the same compound?
A: 99.7%

Q: And the IC50 [28]?
A: 25 nM

Q: And the chromatographic logD [29]?
A: 2.6

Q: And the solubility kinetic at 0.5 h [30]?
A: 6.3 µg/mL (≈ 16 µM)

Q: And the fraction unbound [31]?
A: 0.139

Q: What about the half-life at 1 µM [32] of the same compound?
A: > 8.33 h

Q: And the microsomal CLint at 1 µM [33]?
A: < 1.4 µL/min/mg

Q: What about the MSD [34] of the same compound?
A: >30 days

Q: What about the Activity [35] of the same compound?
A: Active

Q: And the Activity [36]?
A: 99.5%

Q: And the MSD [37]?
A: >30 days

Q: And the Activity [38]?
A: Active

Q: And the Activity [39]?
A: 99.3%

Q: What about the MSD [40] of the same compound?
A: >30 days
